These results are taken from patent US20260265245A1, “AROMATIC HETEROCYCLIC DERIVATIVE HAVING GLP-1 RECEPTOR AGONIST ACTIVITY” (Shionogi & Co., Ltd., priority 2021, published 2026).

For this test, the target named is T1, Human GLP-1 receptor (Homo sapiens, UniProt P43220).
T1 construct: expressed in transfected cells
In words: Measurement of GLP-1 receptor agonist activity (cAMP assay). The format is cell-based. The settings on record: hGLP-1R/CHO-K1 cells; for Emax: cAMP with 2 nM human GLP-1 (7-36) = 100%, DMSO only = 0%; for EC50: increase in cAMP concentration as index, 37° C., 1 hour. As for the experimental part: Test Example 1: Measurement of GLP-1 Receptor Agonist Activity
Human GLP-1 receptor stably expressing cells (hGLP-1R/CHO-K1 cells) are cultured in an a-MEM medium (Sigma) containing 10% FBS (Hyclone), 2% GlutaMAX (Gibco), 1% G418 (Nacalai Tesque), and 1% Penicillin-Streptomycin Mixed Solution (Sigma) at 37° C. under 5% CO2 conditions, and recovered by treating a 10 fold diluted 5.0 g/l-trypsin/5.3 mmol/l-EDTA solution (Nacalai Tesque) and cryopreserved.
A DMSO solution containing the compound of the present invention or human GLP-1 (7-36) (Phoenix Pharmaceuticals) is dispensed into a 384-well microplate (Greiner) at 62.5 nL/well, and in addition, 400 μM Forskolin (Nacalai Tesque) is dispensed therein at 7.5 nL/well. Subsequently, the frozen GLP-1 R/CHO-K1 cells are thawed in a thermostatic bath at 37° C., suspended in HBSS buffer containing 0.1% BSA (Sigma), 20 mM HEPES (GIBCO), 0.1 mM IBMX (Sigma), and 0.2 mM RO20-1724 (Calbiochem) at 2×10^4 cells/mL, and the cell suspension is added at 6 μL/well. The solution was incubated at 37° C. for 1 hour and intracellular cAMP concentration is measured using CAMP Gs dynamic kit (Cisbio) according to the protocol attached to the product. Specifically, a cAMP-d2/Anti-cAMP-Cryptate (1/1) mixed solution is added in a total amount of 6 μL/well, the mixture is incubated at room temperature for 1 hour, and time-resolved fluorescence is measured using PHERAstar (BMG Labtech).
Assuming that the CAMP concentration when human GLP-1 (7-36) is dispensed to a final concentration of 2 nM is 100% and the CAMP concentration when only DMSO is dispensed is 0%, the 50% effective concentration (EC50) and the maximum effect (Emax) of the compound of the present invention are calculated using an increase in the CAMP concentration as an index, using TIBCO Spotfire (TIBCO Software). The dilution concentration or the dilution solvent are changed as necessary.
The compounds of the present invention were tested essentially as described above.
For orientation: cAMP levels reflect the balance of adenylyl cyclase and phosphodiesterase activity.

Structures are written as SMILES.

T1 sequence (P43220 24-463): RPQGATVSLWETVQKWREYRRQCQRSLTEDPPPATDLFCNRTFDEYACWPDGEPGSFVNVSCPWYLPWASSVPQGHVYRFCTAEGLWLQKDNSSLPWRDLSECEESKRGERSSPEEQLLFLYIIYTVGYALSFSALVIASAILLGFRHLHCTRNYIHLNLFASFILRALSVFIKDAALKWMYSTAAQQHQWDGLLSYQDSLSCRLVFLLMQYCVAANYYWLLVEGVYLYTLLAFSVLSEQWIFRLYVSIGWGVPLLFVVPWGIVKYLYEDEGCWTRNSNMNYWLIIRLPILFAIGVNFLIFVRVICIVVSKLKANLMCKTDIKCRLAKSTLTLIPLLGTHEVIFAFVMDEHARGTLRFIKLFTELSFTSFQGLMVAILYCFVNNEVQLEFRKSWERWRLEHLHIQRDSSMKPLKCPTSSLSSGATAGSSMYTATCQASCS

As for `Cn1c(/C=C/C(=O)O)cnc1CN1CCC(c2cccc(OCc3ccc(Cl)cc3F)n2)CC1` [I - 001], the Emax amounted to 63.7% and the EC50 was 181 nM.
The like results for `Cn1c(CN2CCC(c3cccc(OCc4ccc(Cl)cc4F)n3)CC2)nc(Br)c1/C=C/C(=O)O` [I - 002] were, in that order, 85% and 31.5 nM.
On the same counts, the results for `O=C(O)/C=C/c1c(Br)nc(CN2CCC(c3cccc(OCc4ccc(Cl)cc4F)n3)CC2)n1C[C@@H]1CCO1` [I - 003] are 107% and 0.401 nM.
On the same counts, the results for `Oc1nnc(-c2c(Br)nc(CN3CCC(c4cccc(OCc5ccc(Cl)cc5F)n4)CC3)n2C[C@@H]2CCO2)o1` [I - 004] are 97% and 7 nM.
`Oc1nnc(-c2c(Cl)nc(CN3CCC(c4cccc(OCc5ccc(Cl)cc5F)n4)CC3)n2C[C@@H]2CCO2)o1` [I - 005] gave an Emax of 98.7% and an EC50 of 16.2 nM.
On the same counts, the results for `O=C(O)/C=C/c1c(Cl)nc(CN2CCC(c3cccc(OCc4ccc(Cl)cc4F)n3)CC2)n1C[C@@H]1CCO1` [I - 006] are 118% and 1.41 nM.
The like results for `C[C@]1(c2ccc(Cl)cc2F)Oc2cccc(C3CCN(Cc4nc(Cl)c(/C=C/C(=O)O)n4C[C@@H]4CCO4)CC3)c2O1` [I - 007] were, in that order, 92% and 0.138 nM.
Compound `C[C@H]1c2cc(OCc3ccc(Cl)cc3F)c(C(F)(F)F)cc2CCN1Cc1nc(Br)c(/C=C/C(=O)O)n1C[C@@H]1CCO1` [I - 008] had an Emax of 105% and an EC50 of 0.368 nM.
On the same counts, the results for `C[C@H]1c2nc(OCc3ccc(Cl)cc3F)c(C(F)(F)F)cc2CCN1Cc1ncc(/C=C/C(=O)O)n1C[C@@H]1CCO1` [I - 009] are 101% and 0.686 nM.
On the same counts, the results for `C[C@H]1c2nc(OCc3ccc(Cl)cc3F)c(Cl)cc2CCN1Cc1nc(Br)c(/C=C/C(=O)O)n1C[C@@H]1CCO1` [I - 010] are 96% and 0.151 nM.
On the same counts, the results for `C[C@H]1c2nc(OCc3ccc(Cl)cc3F)c(C(F)(F)F)cc2CCN1Cc1nc(Cl)c(/C=C/C(=O)O)n1C[C@@H]1CCO1` [I - 011] are 99.7% and 0.0965 nM.
For the compound `C[C@H]1c2nc(OCc3ccc(Cl)cc3F)c(C(F)F)cc2CCN1Cc1nc(Cl)c(/C=C/C(=O)O)n1C[C@@H]1CCO1` [I - 012], the Emax turned out to be 117% and a half-maximal effect (EC50) was put at 0.283 nM.

As usually defined, the Emax is the maximal effect, on the per cent scale that the assay sets. For orientation: EC50 means the concentration giving half of the maximal effect.
